Assay results: patent US20260001875A1, “AMINOPYRIMIDINYL DERIVATIVES FOR THE TREATMENT OF PARKINSON'S DISEASE” (UNIVERSITY OF DUNDEE, priority 2022, published 2026)
pEC50, pIC50: −log10 of the molar value. “Also recorded” adds a separate entry of the source. Like-named read-outs stand apart in the source and are kept apart here.

Tests used:
LRRK2^WT [1] = molecular target: T1, LRRK2^WT (Mus musculus, UniProt Q5S006); assay: Western blot LRRK2 degradation in WT MEFs; assay type: cell-based; details: for DC50 / Dmax on WT MEFs / Dmax: dose response; for Dmax: read-out: Dmax on WT MEFs
T1 construct: endogenous in cells; host or cells: primary wild-type mouse embryonic fibroblasts (MEFs)

LRRK2^WT [2] = assay: Western blot LRRK2 degradation in WT MEFs; assay type: cell-based, mouse; details: for LRRK2 degradation (in words): WT MEFs and LRRK2^G2019S MEFs
LRRK2 pSer935 [3] = assay: LRRK2 Ser935 dephosphorylation (immunoblot) in WT MEFs; assay type: cell-based, mouse; details: for pEC50: Mus musculus, dose response, read-out: WT MEFs pSer935 LRRK2-dephosphrylation EC50; for T1/2 WT-pSer935-LRRK2: WT MEFs
Experimental: (§1) Western blot degradation assays for the LRRK2 protacs were performed with WT and PD-associated LRRK2 [G2019S] mouse embryonic fibroblasts (MEFs). The second-generation PROTACs were tested in parallel with the first generation PROTACs SD75, SD82, and SD100. The compounds were tested at 33 nM or […] concentrations for 4 hours or 24 hours, running two biological replicates per condition and achieving quantifications representative of both replicates. Analysis by quantitative immunoblotting was performed with readouts of the total LRRK2 (antibody recognizes epitope in C-terminus of protein), Rab10 pThr73 (physiological substrate) and LRRK2 pSer935 (biomarker phosphorylation site).
(§2) Primary MEFs were generated as described in a previous study (Wiggin et al., Mol. Cell Biol. 2002 April; 22(8):2871-81.). Briefly, the uterine horn was collected from adult female mice at day E12.5 and transferred to a 10 cm tissue culture dish containing cold PBS. Two forceps were used to tear the yolk sacs to isolate each embryo. Forceps were cleaned thoroughly with 70% ethanol between each embryo isolation. The embryos were culled, and a tissue piece was collected in a PCR tube for genotyping. The red tissue of the embryo, which grows to become the heart and liver, was removed. The remainder of the embryo was minced with a scalpel blade and incubated with 7.5 ml trypsin-EDTA solution for 10 minutes in a 37° C. tissue culture CO2 incubator. The dish was removed from the incubator and checked under a light microscope for single cells. 7.5 ml complete media was added to the trypsinised cells, and the cell suspension was transferred to a 15 ml Falcon tube, centrifuged at 1200 rpm for 5 minutes at room temperature. The trypsin was aspirated, the cell pellet was resuspended in 5 ml fresh complete media, and the cell suspension was plated in a 60 mm tissue culture dish and incubated in a 37° C., 5% CO2 tissue culture incubator. The MEFs at this stage were considered as passage 0 and were passaged and expanded for experimental use once the genotype was confirmed by allelic sequencing and immunoblotting. MEFs were cultured in Dulbecco's modified Eagle medium (DMEM) containing 10% (v/v) fetal bovine serum (FBS), 2 mM L-glutamine, 100 U/ml penicillin, and 100 μg/ml streptomycin supplemented with 1× non-essential amino acids and 1 mM sodium pyruvate.
(§3) Culturing and passaging of adherent cell lines were carried out using aseptic technique in CL1 or CL2 (for PBMC isolation) biological safety cabinets. All cells were incubated in a 37° C. incubator with 5% CO2. Cell lines were regularly tested for mycoplasma contamination. For western blot assay, the cells were seeded in 6-well plates. After treating with testing compounds at indicated concentrations and time period, the media was removed and the cells were washed with PBS and lysed in 100 μl ice-cold complete lysis buffer containing 50 mM Tris-HCl pH 7.4, 1 mM EGTA, 10 mM 2-glycerophosphate, 50 mM sodium fluoride, 5 mM sodium pyrophosphate, 270 mM sucrose, supplemented with 1 μg/ml microcystin-LR, 1 mM sodium orthovanadate, complete EDTA-free protease inhibitor cocktail (Roche) and 1% (v/v) Triton X-100. The cells were immediately placed on ice and were scraped and collected into 1.5 ml Eppendorf tubes. Cell lysates were incubated on ice for 10 minutes prior to centrifugation at 15,000 g at 4° C. for 15 minutes. The cell pellet was discarded, and supernatant was collected for analysis by quantitative immunoblotting. For long term storage, the supernatant was flash frozen and stored at −80° C. Protein concentrations of cell lysates were determined using the Bradford assay.
(§4) Cell lysates containing a quarter of a volume of 4× NuPAGE LDS sample buffer (NP0007) supplemented with 5% β-mercaptoethanol, were heated at 95° C. for 5 minutes. […]

LRRK2 pSer935 [4] = assay: LRRK2 Ser935 dephosphorylation (immunoblot) in LRRK2^G2019S MEFs; assay type: cell-based, mouse; details: for pEC50: Mus musculus, dose response; for T1/2 GS-pSer935-LRRK2: LRRK2^G2019S MEFs
Experimental: as §1, §2, §3, §4

LRRK2 [5] = molecular target: T2, LRRK2 (Homo sapiens, UniProt Q5S007); assay: NanoBRET-based ternary binding and cooperativity assay; parameters: host or cells: HEK293 (digitonin-permeabilized); details: permeabilized HEK293 cells, without VCB; read-out: IC50 LRRK2 engagement in the absence of VCB
Experimental: (§5) The HEK293 cells were transfected with LRRK2-NanoLuc fusion vector (Promega, NV3401) following Promega's protocol and seeded into white 384-well plate (Corning3570) at a density of 6000 cells/well. The cells were then treated with 50 μg/mL of digitonin, 125 nM of LRRK2 tracer, testing compounds at decreasing concentrations (11 concentrations with 2-fold serial dilution starting from 10 μM) or testing compounds and VCB mix (11 concentrations with 2-fold serial dilution starting from 10 μM compound for the compound. The first 6 concentrations of VCB start from 32 μM with 2-fold dilution, the last 5 concentrations of VCB keep at 1 μM), and NanoBRET NanoGlo Substrate (Promega) at concentration recommended by the manufacturer's protocol. In the maximum signal control samples (DMSO control), DMSO was added instead of testing compounds. In the minimum signal control samples (no tracer control), DMSO and LRRK2 tracer dilution buffer were used to replace testing compounds and LRRK2 tracer separately. The filtered luminescence was measured within 10 min following addition of the substrate on a PHERAstar (BMG LABTECH) plate reader equipped with a 450-nm bandpass filter (donor) and a 600-nm long pass filter (acceptor). The fractional occupancy was calculated according to the equation: fractional occupancy=(mBRETtesting compound−mBRETno tracer control)/(mBRETDMSO control−mBRETno tracer control).

LRRK2 [6] = molecular target: T2, LRRK2; assay: as above; parameters: fused on or other part: NanoLuc luciferase fused to LRRK2 as the BRET donor tag; details: permeabilized HEK293 cells, with VCB; read-out: IC50 LRRK2 engagement in the presence of VCB protein
Experimental: as §5

T1 sequence (Q5S006 whole entry): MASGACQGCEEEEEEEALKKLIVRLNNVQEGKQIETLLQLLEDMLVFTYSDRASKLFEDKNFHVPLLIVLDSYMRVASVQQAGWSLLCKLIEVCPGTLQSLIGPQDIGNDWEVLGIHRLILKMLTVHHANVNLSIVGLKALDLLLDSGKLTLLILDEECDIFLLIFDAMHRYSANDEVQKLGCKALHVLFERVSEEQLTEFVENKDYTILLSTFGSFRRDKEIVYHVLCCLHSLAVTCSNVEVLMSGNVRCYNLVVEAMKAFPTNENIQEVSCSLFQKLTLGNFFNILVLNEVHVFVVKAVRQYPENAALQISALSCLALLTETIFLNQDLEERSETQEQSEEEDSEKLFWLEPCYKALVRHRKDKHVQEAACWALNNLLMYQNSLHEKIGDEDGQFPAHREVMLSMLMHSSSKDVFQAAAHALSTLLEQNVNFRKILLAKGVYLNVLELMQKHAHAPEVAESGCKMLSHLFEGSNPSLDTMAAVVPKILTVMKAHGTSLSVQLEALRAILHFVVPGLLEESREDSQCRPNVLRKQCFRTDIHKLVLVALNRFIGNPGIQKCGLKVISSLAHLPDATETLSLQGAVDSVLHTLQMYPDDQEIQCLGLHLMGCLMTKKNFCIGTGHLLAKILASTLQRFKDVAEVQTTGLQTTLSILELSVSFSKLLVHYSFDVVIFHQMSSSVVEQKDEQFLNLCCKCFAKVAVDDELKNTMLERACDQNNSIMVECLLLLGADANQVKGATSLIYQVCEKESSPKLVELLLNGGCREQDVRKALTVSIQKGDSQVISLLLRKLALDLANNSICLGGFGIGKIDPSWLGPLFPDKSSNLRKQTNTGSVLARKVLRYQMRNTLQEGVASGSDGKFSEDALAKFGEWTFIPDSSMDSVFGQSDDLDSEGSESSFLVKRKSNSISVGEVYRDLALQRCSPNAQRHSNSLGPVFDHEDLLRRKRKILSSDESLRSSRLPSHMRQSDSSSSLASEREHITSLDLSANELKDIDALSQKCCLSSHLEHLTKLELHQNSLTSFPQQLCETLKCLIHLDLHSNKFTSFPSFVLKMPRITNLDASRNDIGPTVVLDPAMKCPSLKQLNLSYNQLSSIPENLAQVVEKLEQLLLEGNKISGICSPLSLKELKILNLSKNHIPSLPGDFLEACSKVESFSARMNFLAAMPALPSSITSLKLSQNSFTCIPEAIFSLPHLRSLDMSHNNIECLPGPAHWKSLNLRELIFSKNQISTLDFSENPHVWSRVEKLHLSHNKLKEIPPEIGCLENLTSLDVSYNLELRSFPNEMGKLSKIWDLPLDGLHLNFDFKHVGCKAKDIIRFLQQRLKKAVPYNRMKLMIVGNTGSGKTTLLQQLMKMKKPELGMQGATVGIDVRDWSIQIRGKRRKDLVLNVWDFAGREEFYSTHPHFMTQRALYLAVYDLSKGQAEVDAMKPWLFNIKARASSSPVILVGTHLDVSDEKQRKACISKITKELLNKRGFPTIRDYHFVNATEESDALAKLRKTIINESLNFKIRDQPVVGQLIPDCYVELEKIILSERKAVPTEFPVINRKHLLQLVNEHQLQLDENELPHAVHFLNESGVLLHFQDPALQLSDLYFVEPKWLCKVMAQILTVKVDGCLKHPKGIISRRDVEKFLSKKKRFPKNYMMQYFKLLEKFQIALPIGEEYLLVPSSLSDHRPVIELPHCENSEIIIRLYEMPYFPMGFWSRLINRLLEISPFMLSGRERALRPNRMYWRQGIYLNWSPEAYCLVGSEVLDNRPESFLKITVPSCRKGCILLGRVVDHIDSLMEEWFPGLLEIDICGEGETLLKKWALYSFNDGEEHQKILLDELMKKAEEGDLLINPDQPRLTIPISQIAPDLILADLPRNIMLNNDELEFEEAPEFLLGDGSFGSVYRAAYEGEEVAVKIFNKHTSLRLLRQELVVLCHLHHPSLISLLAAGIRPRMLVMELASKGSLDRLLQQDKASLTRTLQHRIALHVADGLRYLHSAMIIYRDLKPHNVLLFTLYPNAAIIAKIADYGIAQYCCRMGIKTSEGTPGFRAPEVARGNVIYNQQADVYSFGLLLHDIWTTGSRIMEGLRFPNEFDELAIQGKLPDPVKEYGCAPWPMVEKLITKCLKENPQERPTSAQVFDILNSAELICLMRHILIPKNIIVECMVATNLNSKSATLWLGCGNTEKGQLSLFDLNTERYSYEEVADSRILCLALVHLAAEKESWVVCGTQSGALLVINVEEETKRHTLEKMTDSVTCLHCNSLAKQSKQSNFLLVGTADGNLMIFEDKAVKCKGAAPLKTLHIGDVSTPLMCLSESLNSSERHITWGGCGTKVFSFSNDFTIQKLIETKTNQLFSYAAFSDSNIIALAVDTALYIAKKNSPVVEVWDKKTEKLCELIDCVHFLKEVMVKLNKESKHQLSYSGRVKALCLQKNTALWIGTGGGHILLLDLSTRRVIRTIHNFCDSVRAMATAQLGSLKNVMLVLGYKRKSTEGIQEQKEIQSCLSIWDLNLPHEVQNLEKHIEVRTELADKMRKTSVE
T2 sequence (Q5S007 whole entry, the tested form may be a part): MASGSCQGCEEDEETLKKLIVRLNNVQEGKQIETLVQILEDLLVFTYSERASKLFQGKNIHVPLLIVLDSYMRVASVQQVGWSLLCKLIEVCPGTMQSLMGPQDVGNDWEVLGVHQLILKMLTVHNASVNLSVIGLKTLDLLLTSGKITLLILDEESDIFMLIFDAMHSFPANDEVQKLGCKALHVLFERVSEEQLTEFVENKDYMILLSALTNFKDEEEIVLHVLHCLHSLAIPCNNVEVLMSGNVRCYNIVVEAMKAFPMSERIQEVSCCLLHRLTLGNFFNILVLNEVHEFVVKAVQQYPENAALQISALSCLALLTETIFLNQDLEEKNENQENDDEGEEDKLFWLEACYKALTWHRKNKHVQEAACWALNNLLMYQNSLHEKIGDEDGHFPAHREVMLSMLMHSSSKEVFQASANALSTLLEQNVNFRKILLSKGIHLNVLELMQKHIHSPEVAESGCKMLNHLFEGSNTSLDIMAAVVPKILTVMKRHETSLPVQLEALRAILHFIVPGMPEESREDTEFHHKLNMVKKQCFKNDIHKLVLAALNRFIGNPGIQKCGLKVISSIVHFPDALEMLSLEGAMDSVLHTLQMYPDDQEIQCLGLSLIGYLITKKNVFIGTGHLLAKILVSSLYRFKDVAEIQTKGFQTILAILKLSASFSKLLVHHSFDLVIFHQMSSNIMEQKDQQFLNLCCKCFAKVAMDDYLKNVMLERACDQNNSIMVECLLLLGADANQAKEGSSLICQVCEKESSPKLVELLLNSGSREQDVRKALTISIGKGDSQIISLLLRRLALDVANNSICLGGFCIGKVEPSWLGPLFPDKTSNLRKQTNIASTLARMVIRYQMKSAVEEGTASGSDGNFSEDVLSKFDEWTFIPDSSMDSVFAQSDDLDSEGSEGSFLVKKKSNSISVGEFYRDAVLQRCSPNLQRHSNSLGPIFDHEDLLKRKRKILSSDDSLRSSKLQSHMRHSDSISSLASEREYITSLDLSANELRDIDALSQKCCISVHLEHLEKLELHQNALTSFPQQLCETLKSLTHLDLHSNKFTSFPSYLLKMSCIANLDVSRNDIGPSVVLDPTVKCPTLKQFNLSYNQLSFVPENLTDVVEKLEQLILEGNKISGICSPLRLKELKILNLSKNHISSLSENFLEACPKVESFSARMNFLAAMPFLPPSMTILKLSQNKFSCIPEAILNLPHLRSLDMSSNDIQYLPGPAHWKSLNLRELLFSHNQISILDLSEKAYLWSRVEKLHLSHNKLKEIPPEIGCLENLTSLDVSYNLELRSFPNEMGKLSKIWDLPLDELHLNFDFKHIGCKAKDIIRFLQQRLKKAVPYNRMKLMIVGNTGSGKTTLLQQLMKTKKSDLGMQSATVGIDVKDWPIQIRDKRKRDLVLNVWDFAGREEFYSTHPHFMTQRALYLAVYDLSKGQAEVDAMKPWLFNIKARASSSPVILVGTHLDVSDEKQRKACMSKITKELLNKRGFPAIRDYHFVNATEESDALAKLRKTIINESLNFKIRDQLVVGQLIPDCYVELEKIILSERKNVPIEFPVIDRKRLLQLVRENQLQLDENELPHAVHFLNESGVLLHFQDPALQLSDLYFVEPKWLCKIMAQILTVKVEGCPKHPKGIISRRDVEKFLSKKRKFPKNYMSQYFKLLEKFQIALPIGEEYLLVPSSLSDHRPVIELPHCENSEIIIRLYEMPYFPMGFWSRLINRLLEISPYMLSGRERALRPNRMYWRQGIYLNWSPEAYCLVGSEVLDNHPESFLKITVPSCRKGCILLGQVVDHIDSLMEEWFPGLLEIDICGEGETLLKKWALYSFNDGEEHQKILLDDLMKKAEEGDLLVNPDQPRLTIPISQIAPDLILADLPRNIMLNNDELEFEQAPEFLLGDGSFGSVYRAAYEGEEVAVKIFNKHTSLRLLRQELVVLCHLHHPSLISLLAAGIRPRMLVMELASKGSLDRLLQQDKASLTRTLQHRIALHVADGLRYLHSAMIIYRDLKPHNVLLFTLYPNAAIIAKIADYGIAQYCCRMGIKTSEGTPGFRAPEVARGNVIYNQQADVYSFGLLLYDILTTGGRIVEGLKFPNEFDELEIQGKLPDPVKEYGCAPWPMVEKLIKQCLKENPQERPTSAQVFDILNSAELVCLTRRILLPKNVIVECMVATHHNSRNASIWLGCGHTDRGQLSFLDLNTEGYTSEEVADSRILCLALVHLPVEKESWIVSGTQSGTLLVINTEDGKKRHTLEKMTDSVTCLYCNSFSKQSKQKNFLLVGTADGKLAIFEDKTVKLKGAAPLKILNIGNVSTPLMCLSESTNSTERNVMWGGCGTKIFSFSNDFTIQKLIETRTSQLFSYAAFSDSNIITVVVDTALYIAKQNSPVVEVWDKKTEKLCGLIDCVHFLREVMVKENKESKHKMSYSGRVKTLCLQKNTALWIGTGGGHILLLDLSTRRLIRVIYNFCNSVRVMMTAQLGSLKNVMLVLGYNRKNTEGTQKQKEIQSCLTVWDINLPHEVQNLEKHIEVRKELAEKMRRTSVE

With `CNc1nc(Nc2ccc(C(=O)N3CCN(C[C@H]4CC[C@H](CSC(C)(C)[C@H](NC(=O)C5(F)CC5)C(=O)N5C[C@H](O)CC5C(=O)NCc5ccc(-c6scnc6C)cc5)CC4)CC3)cc2OC)ncc1Cl` (stereo partly drawn) [XL01126, (2S,4R)-1-((R)-3-((((1R,4R)-4-((4-(4-((5-chloro-4-(methylamino)pyrimidin-2-yl)amino)-3-methoxybenzoyl)piperazin-1-yl)methyl)cyclohexyl)methyl)thio)-2-(1-fluorocyclopropane-1-carboxamido)-3-methylbutanoyl)-4-hydroxy-N-(4-(4-methylthiazol-5-yl)benzyl)pyrrolidine-2-carboxamide] the DC50 (LRRK2^WT [1]; 4 h treatment) was 0.032 µM, the “Dmax on WT MEFs” value (LRRK2^WT [1]; 4 h treatment) was 80-90% and the Dmax (LRRK2^WT [1]; 4 h treatment) was 82%. The Dmax at 0.3 µM (LRRK2^WT [1]; time course at 300 nM, WT MEFs) was 82%, the “T1/2 of LRRK2^WT degradation” value (LRRK2^WT [1]; time course at 300 nM, WT MEFs) was 1.2 h and the “LRRK2 degradation (in words)” value (LRRK2^WT [2]) was “almost complete LRRK2 degradation”. For the same molecule, the “mechanism of induced LRRK2 degradation (in words)” value (LRRK2^WT [2]; pretreatment with VH101, MLN4924, MG132, WT and LRRK2^G2019S MEFs) was “dependent on the proteasome pathway”, the pEC50 (LRRK2 pSer935 [3]; 4 h treatment) was 7.74 and the “T1/2 WT-pSer935-LRRK2” value (LRRK2 pSer935 [3]; time course at 300 nM) was 0.6 h. For the same molecule, the pEC50 (LRRK2 pSer935 [4]; 4 h treatment) was 8.05, the “T1/2 GS-pSer935-LRRK2” value (LRRK2 pSer935 [4]; time course at 300 nM) was 0.3 h and the pIC50 (LRRK2 [5]) was 5.70. For the same molecule, the pIC50 (LRRK2 [6]) was 6.46.
`CNc1nc(Nc2ccc(C(=O)N3CCN(CCOCCOCCSC(C)(C)[C@H](NC(=O)C4(F)CC4)C(=O)N4C[C@H](O)C[C@H]4C(=O)NCc4ccc(-c5scnc5C)cc4)CC3)cc2OC)ncc1Cl` [SD75, (2S,4R)-1-((R)-3-((2-(2-(2-(4-(4-((5-chloro-4-(methylamino)pyrimidin-2-yl)amino)-3-methoxybenzoyl)piperazin-1-yl)ethoxy)ethoxy)ethyl)thio)-2-(1-fluorocyclopropane-1-carboxamido)-3-methylbutanoyl)-4-hydroxy-N-(4-(4-methylthiazol-5-yl)benzyl)pyrrolidine-2-carboxamide] was tested, and the “Dmax on WT MEFs” value (LRRK2^WT [1]; 24 h treatment) was 50%, the “T1/2 of LRRK2^WT degradation” value (LRRK2^WT [1]; time course at 1000 nM, WT MEFs) was 5.1 h and the “LRRK2 degradation (in words)” value (LRRK2^WT [2]) was “moderate LRRK2 degradation; also recorded: partial LRRK2 degradation”. For the same molecule, the “Selectivity Index (pSer935-LRRK2 dephosphorylation, WT vs G2019S MEFs)” value (LRRK2 pSer935 [3]; 24 h) was 2.7, the pEC50 (LRRK2 pSer935 [3]; 24 h treatment) was 6.13 and the “T1/2 WT-pSer935-LRRK2” value (LRRK2 pSer935 [3]; time course at 1000 nM) was 3.6 h. For the same molecule, the pEC50 (LRRK2 pSer935 [4]; 24 h treatment) was 6.55, the “T1/2 GS-pSer935-LRRK2” value (LRRK2 pSer935 [4]; time course at 1000 nM) was 1.4 h and the pIC50 (LRRK2 [5]) was 5.96. For the same molecule, the pIC50 (LRRK2 [6]) was 5.85.
`CNc1nc(Nc2ccc(C(=O)N3CCN(C[C@H]4CC[C@@H](CSC(C)(C)[C@H](NC(=O)C5(F)CC5)C(=O)N5C[C@H](O)CC5C(=O)NCc5ccc(-c6scnc6C)cc5)CC4)CC3)cc2OC)ncc1Cl` (stereo partly shown) [XL01134] was tested, and the DC50 (LRRK2^WT [1]; 4 h treatment) was 0.032 µM, the “Dmax on WT MEFs” value (LRRK2^WT [1]; 4 h treatment) was 58% and the Dmax (LRRK2^WT [1]; 4 h treatment) was 59%. For the same molecule, the “T1/2 of LRRK2^WT degradation” value (LRRK2^WT [1]; time course at 300 nM, WT MEFs) was 2.7 h, the “LRRK2 degradation (in words)” value (LRRK2^WT [2]) was “hook effect” and the pEC50 (LRRK2 pSer935 [3]; 4 h treatment) was 7.46. For the same molecule, the “T1/2 WT-pSer935-LRRK2” value (LRRK2 pSer935 [3]; time course at 300 nM) was 0.7 h, the pEC50 (LRRK2 pSer935 [4]; 4 h treatment) was 8.30 and the “T1/2 GS-pSer935-LRRK2” value (LRRK2 pSer935 [4]; time course at 300 nM) was 0.3 h. It also gave a pIC50 (LRRK2 [5]) of 5.96 and a pIC50 (LRRK2 [6]) of 6.10.
